How the values were obtained:
CD-1 mice [1] = assay: Intravenous injection study with multiple-time regression analysis after an acute rapamycin i.v. injection; settings: male CD-1 mice
Protocol: (§1) The blood glucose was measured via the tail vein (AlphaTrak2, Abbott Laboratories, Chicago, IL, USA). […] The radioactivity circulated for times between 1–10 min, after which the carotid artery was cut to collect blood. The mice were immediately decapitated and the whole brain was removed and weighed. The blood was centrifuged at 5400 g for 10 min and the amount of radioactivity in the serum (50 µL) and the whole brain was counted in a gamma counter (Wizard2, PerkinElmer, Waltham, MA, USA). Two separate cohorts of mice were combined in the final analyses. […] Naïve male mice were anesthetized as described.
(§2) The exposure time is calculated by the formula:(1) Exposure time=∫0tCptdt/Cpt where Cp(t) is the level of radioactivity (cpm) in the serum at time (t). The exposure time corrects for the clearance of peptide from the blood. […] The slope of the linearity measures the Ki and is reported with its standard error term. The y-intercept of the linearity measures the Vi, the initial volume of distribution in brain at t = 0 [11].

CD-1 mice [2] = assay: Intravenous injection study with multiple-time regression analysis after chronic rapamycin treatment; settings: for Vi (125I-insulin vascular binding) / Ki (125I-insulin BBB transport): rapamycin 8 mg/kg IP daily for 2 weeks, i.v. tracer
Protocol: (§3) The vehicle was prepared by creating a 1.2% DMSO solution in 5% Tween 80, 5% PEG 400.
as §1, §2

CD-1 mice [3] = assay: Transcardiac brain perfusion (absence of serum factors) after chronic rapamycin treatment; settings: rapamycin 8 mg/kg IP daily for 2 weeks
Protocol: as §3
Perfusate was collected throughout the study to determine the average cpm/µL of perfusate. After perfusion, the whole brain was weighed and the amount of radioactivity was counted in a gamma counter (Wizard2, PerkinElmer). The brain/perfusate ratios were calculated by dividing the cpm in a gram of brain by the cpm in a µL of perfusate to yield the units of µL/g.
as §2

CD-1 mice [4] = assay: Body weight and fasting blood glucose after chronic rapamycin treatment; assay type: in vivo
Protocol: as §3, §1

CD-1 mice [5] = assay: Measurement of hormone levels in serum and brain lysate (Bio-Plex Pro Mouse Diabetes Assay); assay type: in vivo; settings: 2 weeks rapamycin 8 mg/kg
Protocol: (§4) Following a 6 h fast, blood glucose was taken. The mice were anesthetized as described above, the thoracic cavity was opened, and blood was collected from the descending aorta. […] The brain vasculature was washed out by perfusing 20 mL of ice cold LR into the left ventricle of the heart. The brain was removed and split into the right and left hemispheres. The aorta was also removed. The blood was centrifuged at 5400 g for 10 min and the serum was collected. All the tissues were snap frozen in liquid nitrogen and stored at −80 °C until further processing.
(§5) The right hemisphere was crushed with a mortar and pestle in liquid nitrogen and approximately 100 mg of tissue was homogenized in radioimmunoprecipitation assay (RIPA) buffer (150 mM NaCl, 0.5% deoxycholic acid, 0.1% sodium dodecyl sulfate (SDS), 20 mM Tris HCl, and 2 mM ethylenediaminetetraacetic acid (EDTA)) plus freshly added 1/100 dilutions of a protease inhibitor cocktail (Sigma-Aldrich), 1mM sodium orthovanadate, and a phosphatase inhibitor (1 tablet PhosSTOP per 10 mL buffer) (Roche, Basel, Switzerland). The aortas were homogenized in the same lysis buffer. The samples were sonicated at 40% amplitude prior to centrifugation at 12,000× g for 10 min at 4 °C. The supernatants were collected and frozen at −80 °C. The protein was measured using the Pierce BCA Protein Assay Kit (Thermo Fisher Scientific, Rockford, IL, USA).
A panel of 8 metabolic hormones was measured in the brain lysate and serum using a Bio-Plex Pro Mouse Diabetes Assay (Bio-Rad Laboratories, Hercules, CA, USA): ghrelin, glucose-dependent insulinotropic peptide (GIP), glucagon-like peptide-1 (GLP-1), glucagon, insulin, leptin, plasminogen activator inhibitor-1 (PAI-1), and resistin. The serum was diluted 1:4 with the kit diluent. Twenty µg/µL protein lysate samples were measured from the right hemisphere. The samples were measured according to the manufacturer and read on a Bio-Plex 200 (Bio-Rad Laboratories).

aorta = assay: Western immunoblotting of insulin signaling proteins in the aorta; assay type: in vivo, mice; settings: 2 weeks rapamycin 8 mg/kg
Protocol: as §4
as §5, with “USA). […]” for “USA).”

CD-1 mice [6] = assay: Measurement of serum cytokines (Bio-Plex Pro Mouse Cytokine Assay); assay type: in vivo; settings: 2 weeks rapamycin 8 mg/kg
Protocol: as §4
A panel of 23 cytokines was measured in the brain protein lysate and serum using a mouse Bio-Plex Pro Mouse Cytokine Assay (Bio-Rad Laboratories): interleukin (IL)-1α; IL-1β; IL-2; IL-3; IL-4; IL-5; IL-6; IL-9; IL-10; IL-12(p40); IL-12(p70); IL-13; IL-17; eotaxin (CCL11); granulocyte colony-stimulating factor (G-CSF); granulocyte-macrophage colony-stimulating factor (GM-CSF); interferon (IFN)-γ; keratinocyte chemoattractant (KC) (CXCL1); monocyte chemoattractant protein (MCP)-1 (CCL2); macrophage inflammatory protein (MIP)-1α (CCL3); MIP-1β (CCL4); and regulated on activation, normal T cell expressed and secreted (RANTES; CCL5) and tumor necrosis factor (TNF)-α). The serum samples were diluted 1:4 with the kit sample diluent. The samples were measured according to the manufacturer and read on a Bio-Plex 200 (Bio-Rad Laboratories).

CD-1 mice [7] = assay: Serum triglyceride levels after chronic rapamycin treatment; assay type: in vivo; settings: two-week rapamycin treatment 8 mg/kg IP daily; males and females; n = 4/group
[8] = following an 8 mg/kg body weight IP injection; cited from earlier work
humans = settings: 10 mg/day dose for 42 days as tolerated, patients with initial hyperlipidemic response; cited from earlier work
Excerpt: (§6) Triglycerides were one mechanism we hypothesized rapamycin could impact insulin BBB transport. […] A study in humans reported an increase in the serum triglyceride levels by approximately 47% follow ...

mice [9] = settings: cited from earlier work
Excerpt: as §6

mice [10] = settings: cited from earlier work; remark: listed apart in the source
Excerpt: We observed a decrease in body weight only in males.

[11] = female CD-1 mice, transcardiac perfusion

SMILES: CO[C@H]1C[C@@H]2CC[C@@H](C)[C@@](O)(O2)C(=O)C(=O)N2CCCC[C@H]2C(=O)O[C@H]([C@H](C)C[C@@H]2CC[C@@H](O)[C@H](OC)C2)CC(=O)[C@H](C)/C=C(\C)[C@@H](O)[C@@H](OC)C(=O)[C@H](C)C[C@H](C)/C=C/C=C/C=C/1C [Rapamycin]
- Ki (unidirectional influx of 125I-insulin from blood to brain) (CD-1 mice [1]; rapamycin 400 ng i.v. 10 min before 125I-insulin i.v., brain/serum ratio corrected with 99mTc-albumin, 1-10 min, slope ± standard error, gamma counter): 0.541 ± 0.13 µL/g/min
- Vi (125I-insulin vascular binding) (CD-1 mice [1]; rapamycin 400 ng i.v. 10 min before 125I-insulin i.v., y-intercept of regression, p = 0.02 vs vehicle): 10.1 ± 1.3 µL/g
- rate of insulin BBB transport (Ki) (CD-1 mice [1]; rapamycin 400 ng i.v. 10 min before tracer, p = 0.63 vs vehicle): 0.54 ± 0.1 µL/g/min
- Vi (125I-insulin vascular binding) (CD-1 mice [2]; female CD-1 mice): 9.9 ± 2.9 µL/g
- Ki (125I-insulin BBB transport) (CD-1 mice [2]; female CD-1 mice, linear regression not significant (ns)): 0.73 ± 0.34 µL/g/min
- Vi (125I-insulin vascular binding) (CD-1 mice [2]; male CD-1 mice): 4.0 ± 1.0 µL/g
- Ki (125I-insulin BBB transport) (CD-1 mice [2]; male CD-1 mice, slope ± standard error, p = 0.055 vs vehicle): 1.32 ± 0.19 µL/g/min
- vascular marker 99mTc-albumin (BBB integrity) (CD-1 mice [2]; two-week rapamycin treatment, data not shown): no effect
- Ki (125I-insulin BBB transport, absence of serum factors) (CD-1 mice [3]; [11]): 1.89 ± 0.63 µL/g/min
- Vi (125I-insulin vascular binding, absence of serum factors) (CD-1 mice [3]; [11]): 8.3 ± 2.1 µL/g
- Vi (125I-insulin vascular binding, absence of serum factors) (CD-1 mice [3]; male CD-1 mice, transcardiac perfusion): 8.0 ± 1.7 µL/g
- Ki (125I-insulin BBB transport, absence of serum factors) (CD-1 mice [3]; male CD-1 mice, transcardiac perfusion 2 mL/min, 1-5 min, brain/perfusate ratio vs clock time): 1.35 ± 0.53 µL/g/min
- body weight gain (CD-1 mice [4]; 2 weeks of rapamycin 8 mg/kg IP daily, males n = 24-34, females n = 18-19): impacted body weight gain in males only
- fasting blood glucose levels (CD-1 mice [4]; females, 2 weeks rapamycin 8 mg/kg IP daily, 6 h fast, p = 0.19): did not have the same increase
- mean fasting blood glucose levels (CD-1 mice [4]; males, 2 weeks rapamycin 8 mg/kg IP daily, 6 h fast, p < 0.001 vs vehicle (157 mg/dL), n = 12-16/group): 226 mg/dL
- serum GLP-1 levels (CD-1 mice [5]; 6 h fast, treatment p = 0.015, n = 4/group): significantly increased
- serum resistin levels (CD-1 mice [5]; males and females, 6 h fast, p < 0.0001, n = 4/group): significantly decreased
- ghrelin, GIP, glucagon, or leptin levels (CD-1 mice [5]; serum, 6 h fast, n = 4/group): no effect
- brain insulin levels (CD-1 mice [5]; whole brain lysate, treatment p = 0.034, post hoc p = 0.014, n = 3-4/group): significant differences in females only
- MAPK protein expression relative to β-actin (aorta; males and females, treatment p = 0.006, n = 3-4/group): significant increase
- phosphorylated Akt (pAkt Ser473) relative to total Akt (aorta; only in males, interaction p = 0.0918, n = 3-4/group): trend in decreased levels
- serum IL-2 levels (CD-1 mice [6]; 6 h fast, p = 0.009, n = 3/group): increased
- serum IL-17 levels (CD-1 mice [6]; 6 h fast, p = 0.023, n = 3/group): increased
- serum IL-3 levels (CD-1 mice [6]; 6 h fast, treatment p = 0.004, post hoc in males p = 0.007, n = 3/group): increased significantly
- serum TNF-α, RANTES, and GM-CSF levels (CD-1 mice [6]; not statistically significant (0.05 < p < 0.07)): trend towards an increase
- serum triglyceride levels (CD-1 mice [7]): did not elicit a significant change
- blood rapamycin levels [8]: 100 ng/mL
- increase in serum triglyceride levels (humans): approximately 47%
- increase in serum triglyceride levels (mice [9]; growth hormone receptor knockout male mice, 4 mg/kg every other day for 20 weeks): approximately 12%
- serum triglyceride levels (mice [9]; mice fed rapamycin orally): no differences were observed
- glucose tolerance (mice [10]; 2 weeks of daily injections of a fourfold lower concentration than the current study): impair glucose tolerance
- serum glucose levels (mice [10]; five weeks of daily rapamycin treatment, mice fasted overnight): increase

From publication PMC8395935 (Medical Sciences, 2021)
